Results taken from patent US20250282797A1, “CRYSTALLINE FORM OF FGFR4 INHIBITOR AND USE THEREOF” (CSPC ZHONGQI PHARMACEUTICAL TECHNOLOGY (SHIJIAZHUANG) CO., …, priority 2022, published 2025).

How the values were obtained:
[1] = Pharmacokinetic study in rats; format: in vivo, SD rats; conditions: rat
Excerpt: Test Example 6: Pharmacokinetic Study of Compound of Formula B in Rats
Assay drug: the compound of formula B obtained in Preparation Example 1.
Instrument: LC-MS/MS-13 (TQ5500, Triple quad), with the operation software of Xcalibur2.0.7 (Thermo Fisher Scientific, USA); LC-10ADvp liquid chromatography system (Shimadzu, Japan); Shimadzu LC-20AD liquid chromatography pump; Shimadzu CBM-20A system controller; Shimadzu CTO-20A column oven; and SIL-20AC autosampler (Shimadzu, Japan). Chromatographic column: Agilent Zorbax SB-CN 3.5 u 100×2.1 mm; column temperature: 40° C.; mobile phase A: 0.1% aqueous formic acid solution; mobile phase B: a 0.1% solution of formic acid in acetonitrile; flow rate: 0.60 mL/min. The gradient elution was performed as follows: from 0 to 0.5 min, the mobile phase B was increased from 1% to 90%; from 0.5 to 1.2 min, 90% of the mobile phase B was maintained; starting from 1.21 min, the mobile phase B was changed back to 1%; and elution was stopped at 1.60 min.
Animals: 6 male SD rats were supplied by Shanghai Sippe-Bk Lab Animal Co., Ltd. The body weight range was 180-220 g. After purchase, the rats were bred in the laboratory of the experimental animal center for 2 days for later use. The rats were fasted 10-14 h before administration and 4 h after administration, and given ad libitum access to water during the assay. The rats were randomly divided into two groups, with 3 rats in each group. One group was intravenously injected, and the other group was intragastrically administered.
Preparation of intragastric administration solution: the compound of formula B (4.85 mg) was precisely weighed out, and a mixed aqueous solution (9.70 mL) containing 0.5% methylcellulose and 0.4% Tween-80 was added, followed by sonication at room temperature to prepare a 0.5 mg/mL suspension. Preparation of intravenous injection solution: the compound of formula B (2.79 mg) was precisely weighed out, and DMSO (21 μL), PEG200 (2.79 mL), and normal saline (4.164 mL) were added to prepare a 0.4 mg/mL solution.
Blood was collected in the intragastric administration group about 0.25 h before administration and 0.25 h, 0.5 h, 1 h, 1.5 h, 2 h, 4 h, 6 h, 8 h, 12 h, and 24 h after administration. Blood was collected in the intravenous administration group about 0.25 h before administration and 0.083 h, 0.25 h, 0.5 h, 0.75 h, 1 h, 2 h, 4 h, 8 h, 12 h, and 24 h after administration. The blood was collected from the jugular vein or other venipuncture at 0.25 mL/time point and anticoagulated with EDTA-K2 or EDTA-K3. The collected blood was placed on the ice. After the blood samples were collected, plasma was separated by centrifugation (centrifugation conditions: 6800 g/min, 6 min, 2-8° C.). The collected plasma samples were stored in a refrigerator at −80° C. for testing prior to analysis.
The compound of the formula B was accurately weighed out and formulated into different concentrations, and quantitative analysis was performed on a mass spectrometer to establish a standard curve. The concentration of the compound of formula B in the plasma described above was then measured to obtain the concentrations of the compound of formula B at different time points. All the measured data were collected and processed by relevant software, and pharmacokinetic parameters (mainly including kinetic parameters Tmax, T1/2, Cmax, AUC0-t, etc.) were calculated by adopting a statistical moment method. […]

[2] = molecular target: FGFR4 (Homo sapiens, UniProt P22455); experiment: FGFR4 kinase activity inhibition assay (Caliper mobility shift); format: biochemical
Experimental: 1. FGFR4 Kinase Activity Inhibition Assay
The FGFR4 protein kinase activity was determined by using the Caliper mobility shift assay technology. The compound was dissolved in DMSO and then diluted with a kinase buffer, and 5 μL of the compound (10% DMSO) at a 5-fold final reaction concentration was added to a 384-well plate. 10 μL of a 2.5-fold enzyme (FGFR4) solution was added, and then the mixture was incubated at room temperature for 10 min. 10 μL of a 2.5-fold substrate (FAM-labeled peptide and ATP) solution was added. The mixture was incubated at 28° C. for 30-60 min, and then 25 μL of a terminating solution was added to terminate the reaction. Conversion rate data were read on Caliper EZ Reader II (Caliper Life Sciences). The conversion rate was converted into inhibition data date (% inhibition rate=(max−sample conversion rate)/(max−min)×100), wherein max referred to the conversion rate of the DMSO control, and min referred to the conversion rate of the enzyme-free control. The concentration and inhibition rate of the compound were used as the abscissa and ordinate to plot the curve, and the XLFit Excel Add-in version 4.3.1 software was used to fit the curve and calculate the IC50 value.

[3] = tested on: Huh7 cell; experiment: Inhibition assay on Huh-7 tumor cell proliferation (CTG); format: cell-based; conditions: Homo sapiens, 72 h or 168 h drug treatment
Experimental: 2. Inhibition Assay of Compound on Huh-7 Tumor Cell Proliferation
An Huh7 cell suspension was adjusted to 5×10e4 cells/mL or 2×10e4 cells/mL with DMEM+2 mM Glutamine+10% FBS medium. The cell suspension (100 μL) was added to each well of a 96-well cell culture plate at a final cell concentration of 5000 cells/well (72 h) or 2000 cells/well (168 h). The test compound was dissolved in DMSO as a 10 mmol stock solution. Compounds at 200× final concentration were prepared using the stock solution and DMSO, and 3×serial dilutions were prepared and diluted 20-fold with the medium. Finally, 10 μL of the corresponding 10-fold solution was added to each well of each cell strain, a single well for each drug concentration. […] After 72 h or 168 h of drug treatment, 100 μL of a CTG solution which was pre-melted and equilibrated to room temperature was added to each well according to CTG operation instructions, and the solution was mixed well using a microplate shaker for 2 min, left to stand at room temperature for 10 min, and measured for chemiluminescence signal values using an EnSpire plate reader. The cell survival rate was calculated using the following formula: (Vsample−Vblank)/(Vvehicle control−Vblank)×100%, wherein Vsample was the reading of the drug treatment group, Vvehicle control was the average value of the solvent control group, and Vblank was the average value of the blank control well. […]

[4] = male, SD, plasma, iv, intravenously injected, 2.0 mg/kg
[5] = male, SD, plasma, po, intragastrically administered, 5 mg/kg

FGFR4, sequence (P22455 22-802): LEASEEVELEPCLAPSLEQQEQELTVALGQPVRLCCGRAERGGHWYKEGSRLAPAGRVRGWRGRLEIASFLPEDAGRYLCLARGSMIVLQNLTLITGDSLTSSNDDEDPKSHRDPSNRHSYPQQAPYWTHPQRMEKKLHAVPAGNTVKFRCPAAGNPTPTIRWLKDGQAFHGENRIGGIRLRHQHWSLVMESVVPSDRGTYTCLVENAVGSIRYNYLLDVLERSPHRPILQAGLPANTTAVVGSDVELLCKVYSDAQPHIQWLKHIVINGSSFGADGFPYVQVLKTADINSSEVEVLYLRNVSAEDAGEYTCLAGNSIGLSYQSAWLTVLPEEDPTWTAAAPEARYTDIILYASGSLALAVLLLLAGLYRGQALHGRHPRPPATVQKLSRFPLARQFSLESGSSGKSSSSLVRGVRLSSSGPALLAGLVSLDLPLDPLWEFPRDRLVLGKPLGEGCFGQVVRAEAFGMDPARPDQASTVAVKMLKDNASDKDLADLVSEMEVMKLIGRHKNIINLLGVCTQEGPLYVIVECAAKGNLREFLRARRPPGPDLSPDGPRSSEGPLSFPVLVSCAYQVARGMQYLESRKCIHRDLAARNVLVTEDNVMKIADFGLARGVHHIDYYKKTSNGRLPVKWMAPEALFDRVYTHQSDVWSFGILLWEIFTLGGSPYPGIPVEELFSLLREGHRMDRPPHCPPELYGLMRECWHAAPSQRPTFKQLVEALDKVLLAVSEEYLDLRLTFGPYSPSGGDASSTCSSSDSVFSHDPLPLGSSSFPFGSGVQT

An AUC(0-t) [1, 4] of 3980 ng·h/mL, a clearance [1, 4] of 8.63 mL/min/kg and a half-life [1, 4] of 1.88 h were found for `N#Cc1cnc(NC(=O)N2CCCc3cc(CN4CCN5CCC[C@H]5C4=O)c(C=O)nc32)cc1NC1CC1` [compound of formula B] in this work. It also gave a bioavailability ([1]; male, SD, plasma, oral, intragastric 5 mg/kg vs intravenous 2.0 mg/kg, read-out: absolute bioavailability) of 48.6%, an AUC(0-t) [1, 5] of 4840 ng·h/mL and a Cmax [1, 5] of 1220 ng/mL. It also gave a half-life [1, 5] of 1.95 h, a Tmax ([1]; male, SD, plasma, po, intragastrically administered, 5 mg/kg, read-out: time at which the plasma concentration reached the peak value (Tmax)) of 2.67 h and a volume distribution ([1]; intravenously injected, 2.0 mg/kg) of 0.883 L/kg. For the same compound, the IC50 [2] was < 5 nM and the IC50 [3] was < 10 nM.
